Laboratory results: paper PMC10714182 (JACC: Basic to Translational Science, 2023)

Tests used:
5-HT2B [1] = molecular target: T1, 5-HT2B (Homo sapiens, UniProt P41595); assay: 5-HT2B functional readouts; type: cell-based; settings: calcium mobilization and G protein dissociation (BRET2)
[2] = system: Sugen-hypoxia (Su/Hx) mouse model of PAH; assay: Sugen-hypoxia experimental PAH, interventional study; type: in vivo, C57BL/6 mice; settings: intervention, treatment for 2 weeks after 2 weeks of PAH induction
5-HT2B [3] = molecular target: T1, 5-HT2B; settings: read-out: previously reported IC50; cited from earlier work
[4] = system: Sugen-hypoxia (Su/Hx) mouse model of PAH; assay: Sugen-hypoxia experimental PAH, prevention study; type: in vivo, C57BL/6 mice

T1 sequence (P41595 whole entry): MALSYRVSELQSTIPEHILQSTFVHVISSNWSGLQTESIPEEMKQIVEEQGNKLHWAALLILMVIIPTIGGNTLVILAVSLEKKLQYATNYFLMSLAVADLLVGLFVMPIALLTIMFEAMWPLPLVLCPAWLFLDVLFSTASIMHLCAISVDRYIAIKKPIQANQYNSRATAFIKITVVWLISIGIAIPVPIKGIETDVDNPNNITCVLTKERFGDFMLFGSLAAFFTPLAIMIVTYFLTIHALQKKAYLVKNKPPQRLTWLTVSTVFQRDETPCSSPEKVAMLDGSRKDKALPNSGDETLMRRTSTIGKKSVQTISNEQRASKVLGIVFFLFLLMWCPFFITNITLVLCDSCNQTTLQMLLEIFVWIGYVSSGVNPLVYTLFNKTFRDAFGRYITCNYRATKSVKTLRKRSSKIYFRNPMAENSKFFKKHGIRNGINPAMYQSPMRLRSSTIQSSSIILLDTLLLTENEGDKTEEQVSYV

For `Cc1cc(NC(=O)Nc2ccc3c(ccn3C)c2)sn1` [SB204741, N-(1-methyl-5-indolyl)-N'-(3-methyl-5-isothiazolyl)urea], the “behaviour in 5-HT2B functional readouts” value (5-HT2B [1]) is listed as “true antagonist”, the “number of partially and fully muscularized small vessels (0-25 μm)” value [2] is listed as “reduced the number of partially, but not fully, muscularized small vessels” and the IC50 (5-HT2B [3]) is listed as 39.3 nM. For the same compound, the “RVSP vs vehicle control-treated Su/Hx mice” value ([4]; osmotic pump 3 weeks, SB204741 1 mg/kg/d, VU6047534 10 mg/kg/d) was “significantly reduced” and the “number of partially and fully muscularized small vessels (0-25 μm)” value ([4]; treatment before induction of experimental PAH) was “reduced the number of both partially and fully muscularized small vessels”.
